In the NIST ThermoML archive (doi:10.1016/j.jct.2015.01.004):
“And” between values parts separate entries of the source, which are not always exact repeats. Equal entries are not always repeated. Numbers after ± are expanded uncertainties.

Assay: molar heat capacity at constant pressure; xn = mol fraction of the nth substance listed
Details: 100 kPa

[Si] [silicon] + [Li]
Details	molar heat capacity at constant pressure
660 K, Crystal of intercomponent compound 1, relaxation calorimetry + DSC, x2 = 0.81	29.4 ± 1.2 J/K/mol
660 K, Crystal of intercomponent compound 2, relaxation calorimetry + DSC, x2 = 0.804	30.54 ± 1.2 J/K/mol
661.54 K, Crystal of intercomponent compound 2, Small sample (50 mg) DSC, x2 = 0.804	30.1 ± 0.74 J/K/mol and 30.48 ± 0.75 J/K/mol
661.72 K, Crystal of intercomponent compound 1, Small sample (50 mg) DSC, x2 = 0.81	29.4 ± 0.72 J/K/mol
661.75 K, Crystal of intercomponent compound 1, Small sample (50 mg) DSC, x2 = 0.81	29.72 ± 0.73 J/K/mol
671.45 K, Crystal of intercomponent compound 2, Small sample (50 mg) DSC, x2 = 0.804	30.27 ± 0.74 J/K/mol and 30.68 ± 0.75 J/K/mol
671.64 K, Crystal of intercomponent compound 1, Small sample (50 mg) DSC, x2 = 0.81	29.62 ± 0.73 J/K/mol
671.66 K, Crystal of intercomponent compound 1, Small sample (50 mg) DSC, x2 = 0.81	29.83 ± 0.73 J/K/mol
680 K, Crystal of intercomponent compound 1, relaxation calorimetry + DSC, x2 = 0.81	29.94 ± 1.2 J/K/mol
680 K, Crystal of intercomponent compound 2, relaxation calorimetry + DSC, x2 = 0.804	30.97 ± 1.3 J/K/mol
681.36 K, Crystal of intercomponent compound 2, Small sample (50 mg) DSC, x2 = 0.804	30.52 ± 0.75 J/K/mol and 30.84 ± 0.76 J/K/mol
681.56 K, Crystal of intercomponent compound 1, Small sample (50 mg) DSC, x2 = 0.81	29.62 ± 0.73 J/K/mol
681.57 K, Crystal of intercomponent compound 1, Small sample (50 mg) DSC, x2 = 0.81	30.16 ± 0.74 J/K/mol
691.29 K, Crystal of intercomponent compound 2, Small sample (50 mg) DSC, x2 = 0.804	30.56 ± 0.75 J/K/mol and 31.08 ± 0.76 J/K/mol
691.47 K, Crystal of intercomponent compound 1, Small sample (50 mg) DSC, x2 = 0.81	29.94 ± 0.73 J/K/mol
691.48 K, Crystal of intercomponent compound 1, Small sample (50 mg) DSC, x2 = 0.81	30.38 ± 0.74 J/K/mol
700 K, Crystal of intercomponent compound 1, relaxation calorimetry + DSC, x2 = 0.81	30.53 ± 1.2 J/K/mol
700 K, Crystal of intercomponent compound 2, relaxation calorimetry + DSC, x2 = 0.804	31.4 ± 1.3 J/K/mol
701.21 K, Crystal of intercomponent compound 2, Small sample (50 mg) DSC, x2 = 0.804	31.04 ± 0.76 J/K/mol and 31.36 ± 0.77 J/K/mol
701.37 K, Crystal of intercomponent compound 1, Small sample (50 mg) DSC, x2 = 0.81	30.27 ± 0.74 J/K/mol
701.39 K, Crystal of intercomponent compound 1, Small sample (50 mg) DSC, x2 = 0.81	30.6 ± 0.75 J/K/mol
711.13 K, Crystal of intercomponent compound 2, Small sample (50 mg) DSC, x2 = 0.804	31.38 ± 0.77 J/K/mol and 31.59 ± 0.77 J/K/mol
711.28 K, Crystal of intercomponent compound 1, Small sample (50 mg) DSC, x2 = 0.81	30.6 ± 0.75 J/K/mol
711.3 K, Crystal of intercomponent compound 1, Small sample (50 mg) DSC, x2 = 0.81	30.82 ± 0.75 J/K/mol
720 K, Crystal of intercomponent compound 1, relaxation calorimetry + DSC, x2 = 0.81	31.18 ± 1.3 J/K/mol
720 K, Crystal of intercomponent compound 2, relaxation calorimetry + DSC, x2 = 0.804	31.84 ± 1.3 J/K/mol
721.05 K, Crystal of intercomponent compound 2, Small sample (50 mg) DSC, x2 = 0.804	31.75 ± 0.78 J/K/mol and 32.03 ± 0.78 J/K/mol
721.2 K, Crystal of intercomponent compound 1, Small sample (50 mg) DSC, x2 = 0.81	30.49 ± 0.75 J/K/mol
721.22 K, Crystal of intercomponent compound 1, Small sample (50 mg) DSC, x2 = 0.81	31.15 ± 0.76 J/K/mol
730.97 K, Crystal of intercomponent compound 2, Small sample (50 mg) DSC, x2 = 0.804	32.1 ± 0.79 J/K/mol and 32.36 ± 0.79 J/K/mol
731.12 K, Crystal of intercomponent compound 1, Small sample (50 mg) DSC, x2 = 0.81	31.04 ± 0.76 J/K/mol
731.13 K, Crystal of intercomponent compound 1, Small sample (50 mg) DSC, x2 = 0.81	31.37 ± 0.77 J/K/mol
740 K, Crystal of intercomponent compound 1, relaxation calorimetry + DSC, x2 = 0.81	31.88 ± 1.3 J/K/mol
740 K, Crystal of intercomponent compound 2, relaxation calorimetry + DSC, x2 = 0.804	32.3 ± 1.3 J/K/mol
740.89 K, Crystal of intercomponent compound 2, Small sample (50 mg) DSC, x2 = 0.804	32.38 ± 0.79 J/K/mol and 32.64 ± 0.8 J/K/mol
741.03 K, Crystal of intercomponent compound 1, Small sample (50 mg) DSC, x2 = 0.81	31.26 ± 0.77 J/K/mol
741.04 K, Crystal of intercomponent compound 1, Small sample (50 mg) DSC, x2 = 0.81	31.7 ± 0.78 J/K/mol
750.81 K, Crystal of intercomponent compound 2, Small sample (50 mg) DSC, x2 = 0.804	32.68 ± 0.8 J/K/mol and 32.92 ± 0.81 J/K/mol
750.95 K, Crystal of intercomponent compound 1, Small sample (50 mg) DSC, x2 = 0.81	31.81 ± 0.78 J/K/mol
750.96 K, Crystal of intercomponent compound 1, Small sample (50 mg) DSC, x2 = 0.81	32.14 ± 0.79 J/K/mol
760 K, Crystal of intercomponent compound 1, relaxation calorimetry + DSC, x2 = 0.81	32.63 ± 1.3 J/K/mol
760 K, Crystal of intercomponent compound 2, relaxation calorimetry + DSC, x2 = 0.804	32.82 ± 1.3 J/K/mol
760.73 K, Crystal of intercomponent compound 2, Small sample (50 mg) DSC, x2 = 0.804	33.14 ± 0.81 J/K/mol and 33.47 ± 0.82 J/K/mol
760.87 K, Crystal of intercomponent compound 1, Small sample (50 mg) DSC, x2 = 0.81	32.14 ± 0.79 J/K/mol and 32.58 ± 0.8 J/K/mol
770.64 K, Crystal of intercomponent compound 2, Small sample (50 mg) DSC, x2 = 0.804	33.77 ± 0.83 J/K/mol and 34.02 ± 0.83 J/K/mol
770.79 K, Crystal of intercomponent compound 1, Small sample (50 mg) DSC, x2 = 0.81	33.23 ± 0.82 J/K/mol and 33.34 ± 0.82 J/K/mol
771.71 K, Crystal of intercomponent compound 1, Small sample (50 mg) DSC, x2 = 0.81	33.67 ± 0.83 J/K/mol
773.69 K, Crystal of intercomponent compound 1, Small sample (50 mg) DSC, x2 = 0.81	33.78 ± 0.83 J/K/mol
775.67 K, Crystal of intercomponent compound 1, Small sample (50 mg) DSC, x2 = 0.81	33.89 ± 0.83 J/K/mol
777.66 K, Crystal of intercomponent compound 1, Small sample (50 mg) DSC, x2 = 0.81	34.22 ± 0.84 J/K/mol
779.64 K, Crystal of intercomponent compound 1, Small sample (50 mg) DSC, x2 = 0.81	34.39 ± 0.84 J/K/mol
780 K, Crystal of intercomponent compound 1, relaxation calorimetry + DSC, x2 = 0.81	33.45 ± 1.4 J/K/mol
780 K, Crystal of intercomponent compound 2, relaxation calorimetry + DSC, x2 = 0.804	33.49 ± 1.4 J/K/mol
780.56 K, Crystal of intercomponent compound 2, Small sample (50 mg) DSC, x2 = 0.804	34.41 ± 0.84 J/K/mol and 34.69 ± 0.85 J/K/mol
780.7 K, Crystal of intercomponent compound 1, Small sample (50 mg) DSC, x2 = 0.81	34 ± 0.83 J/K/mol
780.71 K, Crystal of intercomponent compound 1, Small sample (50 mg) DSC, x2 = 0.81	34.22 ± 0.84 J/K/mol
781.63 K, Crystal of intercomponent compound 1, Small sample (50 mg) DSC, x2 = 0.81	34.88 ± 0.85 J/K/mol
783.61 K, Crystal of intercomponent compound 1, Small sample (50 mg) DSC, x2 = 0.81	34.99 ± 0.86 J/K/mol
785.59 K, Crystal of intercomponent compound 1, Small sample (50 mg) DSC, x2 = 0.81	35.21 ± 0.86 J/K/mol
787.58 K, Crystal of intercomponent compound 1, Small sample (50 mg) DSC, x2 = 0.81	35.32 ± 0.87 J/K/mol
789.57 K, Crystal of intercomponent compound 1, Small sample (50 mg) DSC, x2 = 0.81	35.32 ± 0.87 J/K/mol
790.48 K, Crystal of intercomponent compound 2, Small sample (50 mg) DSC, x2 = 0.804	34.65 ± 0.85 J/K/mol and 35.21 ± 0.86 J/K/mol
790.61 K, Crystal of intercomponent compound 1, Small sample (50 mg) DSC, x2 = 0.81	34.99 ± 0.86 J/K/mol
790.63 K, Crystal of intercomponent compound 1, Small sample (50 mg) DSC, x2 = 0.81	34.55 ± 0.85 J/K/mol
791.55 K, Crystal of intercomponent compound 1, Small sample (50 mg) DSC, x2 = 0.81	35.54 ± 0.87 J/K/mol
793.53 K, Crystal of intercomponent compound 1, Small sample (50 mg) DSC, x2 = 0.81	35.76 ± 0.88 J/K/mol
795.51 K, Crystal of intercomponent compound 1, Small sample (50 mg) DSC, x2 = 0.81	36.31 ± 0.89 J/K/mol
797.49 K, Crystal of intercomponent compound 1, Small sample (50 mg) DSC, x2 = 0.81	36.96 ± 0.91 J/K/mol
800 K, Crystal of intercomponent compound 1, relaxation calorimetry + DSC, x2 = 0.81	34.34 ± 1.4 J/K/mol
800 K, Crystal of intercomponent compound 2, relaxation calorimetry + DSC, x2 = 0.804	34.61 ± 1.4 J/K/mol
800.39 K, Crystal of intercomponent compound 2, Small sample (50 mg) DSC, x2 = 0.804	35.13 ± 0.86 J/K/mol and 35.58 ± 0.87 J/K/mol
810.3 K, Crystal of intercomponent compound 2, Small sample (50 mg) DSC, x2 = 0.804	35.47 ± 0.87 J/K/mol and 36.02 ± 0.88 J/K/mol
820 K, Crystal of intercomponent compound 2, relaxation calorimetry + DSC, x2 = 0.804	36.83 ± 1.5 J/K/mol
820.22 K, Crystal of intercomponent compound 2, Small sample (50 mg) DSC, x2 = 0.804	36.24 ± 0.89 J/K/mol and 36.35 ± 0.89 J/K/mol
830.13 K, Crystal of intercomponent compound 2, Small sample (50 mg) DSC, x2 = 0.804	38.35 ± 0.94 J/K/mol and 38.57 ± 0.95 J/K/mol
840 K, Crystal of intercomponent compound 2, relaxation calorimetry + DSC, x2 = 0.804	41.72 ± 1.7 J/K/mol
840.04 K, Crystal of intercomponent compound 2, Small sample (50 mg) DSC, x2 = 0.804	41.23 ± 1 J/K/mol and 41.78 ± 1 J/K/mol
849.95 K, Crystal of intercomponent compound 2, Small sample (50 mg) DSC, x2 = 0.804	45.22 ± 1.1 J/K/mol and 47.32 ± 1.2 J/K/mol
859.87 K, Crystal of intercomponent compound 2, Small sample (50 mg) DSC, x2 = 0.804	51.54 ± 1.3 J/K/mol and 53.53 ± 1.3 J/K/mol
860 K, Crystal of intercomponent compound 2, relaxation calorimetry + DSC, x2 = 0.804	52.81 ± 2.1 J/K/mol
869.79 K, Crystal of intercomponent compound 2, Small sample (50 mg) DSC, x2 = 0.804	60.18 ± 1.5 J/K/mol and 65.17 ± 1.6 J/K/mol
